{
  "source": "paper PMC10033563",
  "about": "“Unique alcohol dehydrogenases involved in algal sugar utilization by marine bacteria” (Applied Microbiology and Biotechnology, 2023)",
  "key": {"[1]": {"target": "T1, ZoADH (Zobellia galactanivorans, UniProt G0L712)", "T1 construct": "gene adhI; codon-optimized synthetic gene in pET28a, N-terminal Strep-tag, E. coli BL21(DE3); homotetramer; 2 Zn per monomer", "T1 sequence (G0L712 entry or part of it)": "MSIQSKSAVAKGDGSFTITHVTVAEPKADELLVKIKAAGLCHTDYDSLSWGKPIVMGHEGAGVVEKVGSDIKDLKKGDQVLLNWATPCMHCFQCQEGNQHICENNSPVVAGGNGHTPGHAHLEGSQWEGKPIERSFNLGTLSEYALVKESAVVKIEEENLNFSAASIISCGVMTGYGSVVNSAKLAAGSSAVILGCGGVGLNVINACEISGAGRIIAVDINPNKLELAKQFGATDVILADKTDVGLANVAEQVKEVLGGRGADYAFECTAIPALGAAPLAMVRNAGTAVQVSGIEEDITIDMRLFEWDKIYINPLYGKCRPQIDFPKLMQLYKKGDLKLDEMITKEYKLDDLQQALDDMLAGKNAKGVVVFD", "test": "X-ray crystal structure", "format": "binding", "details": "co-crystallised with 20 mM NAD+, pH 7.5; Zn2+ bound"}, "[2]": {"target": "T2, FoADH (Formosa agariphila, UniProt T2KM87)", "T2 construct": "gene BN863_21030; full-length from genomic DNA in pET28a, N-terminal Strep-tag, E. coli BL21(DE3); homotetramer; 2 Zn per monomer", "T2 sequence (T2KM87 1-370)": "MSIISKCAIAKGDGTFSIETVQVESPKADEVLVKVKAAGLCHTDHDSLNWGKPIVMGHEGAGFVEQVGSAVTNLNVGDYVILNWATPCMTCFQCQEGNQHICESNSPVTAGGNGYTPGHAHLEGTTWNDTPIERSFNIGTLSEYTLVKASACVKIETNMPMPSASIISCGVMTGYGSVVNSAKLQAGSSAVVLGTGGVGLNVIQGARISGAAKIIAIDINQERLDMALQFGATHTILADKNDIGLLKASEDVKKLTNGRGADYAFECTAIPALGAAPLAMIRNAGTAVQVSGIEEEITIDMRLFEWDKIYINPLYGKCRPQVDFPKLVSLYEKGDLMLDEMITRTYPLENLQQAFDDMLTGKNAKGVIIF", "test": "X-ray crystal structure", "format": "binding", "details": "co-crystallised with 20 mM NAD+, pH 7.5; Zn2+ bound"}, "[3]": {"target": "zinc-dependent alcohol dehydrogenase from Zobellia galactanivorans DsijT (Zobellia galactanivorans DsijT)", "test": "crystal structure; enzyme (25 mg/mL) incubated with 20 mM NAD+ overnight; crystals from 0.1 M Tris-HCl pH 7.5, 0.2 M KCl, 20-22% (w/v) PEG 3350 at 22 °C; tetrameric interfaces analysed by PDBePISA; tetramer as a dimer of dimers"}, "[4]": {"target": "the molecule itself", "test": "crystal structure; enzyme (25 mg/mL) incubated with 20 mM NAD+ overnight; crystals from 0.1 M Tris-HCl pH 7.5, 0.2 M KCl, 20-22% (w/v) PEG 3350 at 22 °C; tetrameric interfaces analysed by PDBePISA; tetramer as a dimer of dimers"}},
  "data": [
    {"molecule": "NC(=O)c1ccc[n+]([C@@H]2O[C@H](COP(=O)(O)OP(=O)(O)OC[C@H]3O[C@@H](n4cnc5c(N)ncnc54)[C@H](O)[C@@H]3O)[C@@H](O)[C@H]2O)c1", "note": "[NAD^+]", "values": [
      {"measurement": "X-ray crystal structure", "setting": "[1]", "value": "PDB codes 8H2A (FoADH-NAD) and 8H2B (ZoADH-NAD)"},
      {"measurement": "X-ray crystal structure", "setting": "[2]", "value": "deposited in the Protein Data Bank under PDB codes 8H2A (FoADH-NAD)"}
    ]},
    {"molecule": "zinc-dependent alcohol dehydrogenase from Zobellia galactanivorans DsijT (enzyme)", "values": [
      {"measurement": "stoichiometry N", "setting": "[3]", "value": 4}
    ]},
    {"molecule": "zinc-dependent alcohol dehydrogenase from Formosa agariphila KMM 3901T (enzyme, UniProt T2KM87 1-370, looked up, FoADH, zinc-dependent alcohol dehydrogenase of Formosa agariphila KMM 3901T (DSM-15362), amplified from genomic DNA into pET28a; the printed insert primers run from the ATG to the stop codon (TTA in the reverse primer); Crystallised with NAD+ and two zinc ions; also called FoADH; ADH; source: E. coli BL21 (DE3), purified (Strep-Tactin XT Sepharose, size exclusion chromatography)) MSIISKCAIAKGDGTFSIETVQVESPKADEVLVKVKAAGLCHTDHDSLNWGKPIVMGHEGAGFVEQVGSAVTNLNVGDYVILNWATPCMTCFQCQEGNQHICESNSPVTAGGNGYTPGHAHLEGTTWNDTPIERSFNIGTLSEYTLVKASACVKIETNMPMPSASIISCGVMTGYGSVVNSAKLQAGSSAVVLGTGGVGLNVIQGARISGAAKIIAIDINQERLDMALQFGATHTILADKNDIGLLKASEDVKKLTNGRGADYAFECTAIPALGAAPLAMIRNAGTAVQVSGIEEEITIDMRLFEWDKIYINPLYGKCRPQVDFPKLVSLYEKGDLMLDEMITRTYPLENLQQAFDDMLTGKNAKGVIIF", "values": [
      {"measurement": "stoichiometry N", "setting": "[4]", "value": 4}
    ]}
  ]
}
